Data: patent US7994307B2, “RNAi modulation of the BCR-ABL fusion gene and uses thereof” (Alnylam Pharmaceuticals, Inc., priority 2004, dated 2011)
Entries after “also recorded” stand apart in the source; their conditions may differ. Where a name gives a salt, the structure may show the parent alone.

Legend:
[1] = tested on: 32Dp190/e1a2 cells; assay: MTT viability assay in 32Dp190/e1a2 cells; format: cell-based, murine
Method: (§1) FIGS. 2A-2B: ˜5 Mio 32Dp190/e1a2 cells have been electroporated twice at intervals of 24 h with the indicated siRNA. BAF22/BAF24: bcr-abl-e1a2-specific siRNAs; BAF9: bcr-abl-e14a2-specific siRNA, served as control; BAF19: bcr-abl-e13a2-specific siRNA, served as control; EPC: electroporation control. FIG. 2A: Western blot analysis of p190^Bcr-abl (e1a2) in 32Dp190/e1a2 cells about 24 h following second siRNA treatment; the level of GAPDH served as loading control. Lane 1: EPC, Lane 2: BAF9, Lane 3: BAF19, Lane 4: BAF22, Lane 5: BAF24. […] Values are means +/− SD of triplicates.
[…] Cell survival was then measured by MTT assay as described (Van der Kuip H, et al., Blood. 2001, 98:1532)
(§2) siRNA-transfection: siRNAs were transfected into the murine cell lines 32Dp210Bcr-Abl-e14a2, -e13a2, 32Dp190Bcr-Abl-e1a2 and the human leukemic cell line MEG-01 using electroporation. Cell density was adjusted to 2.5-5×10^6/ml in RPMI/10% FCS. 800 μl of this cell suspension were mixed with siRNA in a 4 mm electroporation cuvette. Cells were electroporated by means of an EasyJect electroporator (peqlab, Erlangen, Germany) using a single-pulse protocol (250 V, 1800 μF, 8.). This treatment was repeated in intervals of 24 hours as indicated.
In 32Dp210Bcr-Abl-e14a2, -e13a2 and 32Dp190Bcr-Abl-e1a2 inhibition of Bcr-Abl can be compensated by addition of exogenous growth factor to the medium. […]

[2] = tested on: p190Bcr-Abl (e1a2); assay: Western blot of Bcr-Abl protein in 32Dp190/e1a2 cells; format: cell-based, murine; details: 32Dp190Bcr-Abl (e1a2) cells, treated twice at intervals of 24 h
Method: as §1
(§3) Protein assay: Western blot analysis was performed ˜24 h following the last siRNA -treatment or ˜96 hours following transfection with the pSUPER siRNA-expression vector as described (Goetz A W, et al., Cancer Res. 2001, 61:7635)
siRNA-transfection: siRNAs were transfected into the murine cell lines 32Dp210Bcr-Abl-e14a2, -e13a2, 32Dp190Bcr-Abl-e1a2 and the human leukemic cell line MEG-01 using electroporation. Cell density was adjusted to 2.5-5×10^6/ml in RPMI/10% FCS. 800 μl of this cell suspension were mixed with siRNA in a 4 mm electroporation cuvette. Cells were electroporated by means of an EasyJect electroporator (peqlab, Erlangen, Germany) using a single-pulse protocol (250 V, 1800 μF, 8.). This treatment was repeated in intervals of 24 hours as indicated. […]

[3] = tested on: p190Bcr-Abl; assay: Western blot of p190Bcr-Abl in SUP-B15 cells; format: cell-based, human; details: 3 treatments at intervals of 24 hours, compared to EPC or BAF19 control
Method: FIG. 3: Cells from the human B cell precursor leukemia cell line SUP-B15 (ACC 389; DSMZ, Braunschweig, breakpoint variant e1a2) were treated as described for […] with an e1a2-specific siRNA (BAF22) or with siRNA directed to another breakpoint variant (BAF19, specific for e13a2) as a control.
as §2
SUP-B15 cells were treated by electroporation as described above with an e1a2-specific siRNA (BAF22) or with siRNA directed to another breakpoint variant (BAF19) as a control.

[4] = tested on: 32Dp210/e13a2 cells; assay: MTT viability assay in 32Dp210/e13a2 cells; format: cell-based, murine; details: 32Dp210Bcr-Abl (e13a2) cells; for viability: repeated (up to three) treatments; for viability relative to controls (EPC): 48 h following 3rd treatment
Method: (§4) FIGS. 1A-1B: ˜2.5 Mio 32Dp210/e13a2 cells have been electroporated 1-3×at intervals of 24 h with the indicated siRNA. BAF3/BAF15/BAF17/BAF19: bcr-abl-e13a2-specific siRNAs; BAF9: bcr-abl-e14a2-specific siRNA, served as control; EPC: electroporation control. FIG. 1A: Western blot analysis of p210^Bcr-abl (e13a2) in 32Dp210/e13a2˜24 h following siRNA treatment; the level of GAPDH served as loading control. Lane 1: EPC, Lane 2: BAF9, Lane 3: BAF3, Lane 4: BAF15, Lane 5: BAF17, Lane 6: BAF19. […] Values are means +/− SD of triplicates.
(§5) Survival Assay: Following the last siRNA treatment cells were seeded in 96 well plates and cultivated for another ˜48 hours. Cell survival was then measured by MTT assay as described (Van der Kuip H, et al., Blood. 2001, 98:1532)
as §2
(§6) In 32Dp210Bcr-Abl-e14a2, -e13a2 and 32Dp190Bcr-Abl-e1a2 inhibition of Bcr-Abl can be compensated by addition of exogenous growth factor to the medium. Therefor, recombinant murine IL-3, (1 ng/ml) was added to the growth medium during siRNA treatment of these cell lines. Following the last siRNA treatment cells were washed and factor deprived before starting the different examination procedures (Western blot/MTT).

[5] = tested on: p210Bcr-Abl (e13a2); assay: Western blot of Bcr-Abl protein in 32Dp210/e13a2 cells; format: cell-based, murine; details: 32Dp210Bcr-Abl (e13a2) cells, repeated electroporation
p210Bcr-Abl (e13a2), sequence (P11274+P00519 fused): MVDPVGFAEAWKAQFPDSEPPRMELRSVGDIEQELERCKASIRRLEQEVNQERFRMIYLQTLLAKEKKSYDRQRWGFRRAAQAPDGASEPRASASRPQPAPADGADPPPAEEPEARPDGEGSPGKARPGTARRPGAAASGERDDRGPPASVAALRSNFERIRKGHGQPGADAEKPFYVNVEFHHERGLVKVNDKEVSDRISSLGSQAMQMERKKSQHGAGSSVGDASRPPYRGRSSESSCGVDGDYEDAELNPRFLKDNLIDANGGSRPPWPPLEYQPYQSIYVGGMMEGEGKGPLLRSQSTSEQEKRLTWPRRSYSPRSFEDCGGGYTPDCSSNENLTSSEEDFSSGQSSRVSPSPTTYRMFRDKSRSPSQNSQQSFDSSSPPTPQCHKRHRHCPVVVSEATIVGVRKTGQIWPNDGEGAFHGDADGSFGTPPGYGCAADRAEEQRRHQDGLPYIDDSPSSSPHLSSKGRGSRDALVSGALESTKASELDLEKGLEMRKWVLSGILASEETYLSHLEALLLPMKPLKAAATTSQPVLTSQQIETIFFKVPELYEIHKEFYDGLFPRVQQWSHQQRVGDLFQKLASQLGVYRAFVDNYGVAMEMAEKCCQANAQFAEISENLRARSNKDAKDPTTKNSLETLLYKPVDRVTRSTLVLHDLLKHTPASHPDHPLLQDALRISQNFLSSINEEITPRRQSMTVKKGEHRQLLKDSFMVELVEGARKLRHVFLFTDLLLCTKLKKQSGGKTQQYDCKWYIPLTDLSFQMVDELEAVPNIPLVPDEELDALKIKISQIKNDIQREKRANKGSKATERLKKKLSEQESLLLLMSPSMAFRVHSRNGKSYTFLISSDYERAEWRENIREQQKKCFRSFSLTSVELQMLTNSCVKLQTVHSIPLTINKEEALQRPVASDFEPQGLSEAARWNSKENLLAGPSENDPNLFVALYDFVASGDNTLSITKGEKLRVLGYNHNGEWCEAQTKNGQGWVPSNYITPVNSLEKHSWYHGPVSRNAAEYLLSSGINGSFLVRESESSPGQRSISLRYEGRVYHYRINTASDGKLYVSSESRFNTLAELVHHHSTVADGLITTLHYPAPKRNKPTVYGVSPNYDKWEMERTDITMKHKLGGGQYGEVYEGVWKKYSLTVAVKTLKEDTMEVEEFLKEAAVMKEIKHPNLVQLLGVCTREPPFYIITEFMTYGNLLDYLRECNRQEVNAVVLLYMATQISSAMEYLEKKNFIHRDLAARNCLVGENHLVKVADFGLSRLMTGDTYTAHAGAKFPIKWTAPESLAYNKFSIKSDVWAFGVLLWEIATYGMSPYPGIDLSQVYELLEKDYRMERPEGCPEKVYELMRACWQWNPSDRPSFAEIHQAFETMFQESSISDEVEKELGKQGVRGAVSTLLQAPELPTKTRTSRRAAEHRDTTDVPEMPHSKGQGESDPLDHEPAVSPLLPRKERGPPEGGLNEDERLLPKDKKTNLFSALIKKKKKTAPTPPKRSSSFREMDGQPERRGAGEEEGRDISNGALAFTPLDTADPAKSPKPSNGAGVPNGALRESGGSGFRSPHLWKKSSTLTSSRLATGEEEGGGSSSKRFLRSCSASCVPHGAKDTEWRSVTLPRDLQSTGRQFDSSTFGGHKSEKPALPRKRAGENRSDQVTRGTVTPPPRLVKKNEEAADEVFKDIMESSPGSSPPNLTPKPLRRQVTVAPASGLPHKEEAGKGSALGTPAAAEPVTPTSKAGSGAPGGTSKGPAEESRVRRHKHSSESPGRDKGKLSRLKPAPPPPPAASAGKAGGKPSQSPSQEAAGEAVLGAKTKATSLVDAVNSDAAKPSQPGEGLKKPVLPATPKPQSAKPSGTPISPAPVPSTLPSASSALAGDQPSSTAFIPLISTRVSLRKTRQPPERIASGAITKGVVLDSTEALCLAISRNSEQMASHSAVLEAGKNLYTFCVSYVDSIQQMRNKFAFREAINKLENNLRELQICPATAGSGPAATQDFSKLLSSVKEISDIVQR
Method: as §4, §3, §2, §6

[6] = tested on: 32Dp210-T315I cells; assay: Sensitivity to imatinib mesylate of 32Dp210-T315I cells; format: cell-based, murine; details: 32D cells expressing Bcr-Abl-T315I
[7] = tested on: K562 cells; details: 48 h treatment with imatinib mesylate alone (Wilda et al.); cited from earlier work
[8] = tested on: 32Dp210-H396P cells; assay: Sensitivity to imatinib mesylate of 32Dp210-H396P cells; format: cell-based, murine; details: 32D cells expressing Bcr-Abl-H396P
[9] = tested on: p210Bcr-Abl (e14a2); assay: Western blot of Bcr-Abl protein in 32Dp210/e14a2 cells after siRNA electroporation; format: cell-based, murine; details: 32Dp210Bcr-Abl (e14a2) cells
p210Bcr-Abl (e14a2), sequence (P11274+P00519 fused): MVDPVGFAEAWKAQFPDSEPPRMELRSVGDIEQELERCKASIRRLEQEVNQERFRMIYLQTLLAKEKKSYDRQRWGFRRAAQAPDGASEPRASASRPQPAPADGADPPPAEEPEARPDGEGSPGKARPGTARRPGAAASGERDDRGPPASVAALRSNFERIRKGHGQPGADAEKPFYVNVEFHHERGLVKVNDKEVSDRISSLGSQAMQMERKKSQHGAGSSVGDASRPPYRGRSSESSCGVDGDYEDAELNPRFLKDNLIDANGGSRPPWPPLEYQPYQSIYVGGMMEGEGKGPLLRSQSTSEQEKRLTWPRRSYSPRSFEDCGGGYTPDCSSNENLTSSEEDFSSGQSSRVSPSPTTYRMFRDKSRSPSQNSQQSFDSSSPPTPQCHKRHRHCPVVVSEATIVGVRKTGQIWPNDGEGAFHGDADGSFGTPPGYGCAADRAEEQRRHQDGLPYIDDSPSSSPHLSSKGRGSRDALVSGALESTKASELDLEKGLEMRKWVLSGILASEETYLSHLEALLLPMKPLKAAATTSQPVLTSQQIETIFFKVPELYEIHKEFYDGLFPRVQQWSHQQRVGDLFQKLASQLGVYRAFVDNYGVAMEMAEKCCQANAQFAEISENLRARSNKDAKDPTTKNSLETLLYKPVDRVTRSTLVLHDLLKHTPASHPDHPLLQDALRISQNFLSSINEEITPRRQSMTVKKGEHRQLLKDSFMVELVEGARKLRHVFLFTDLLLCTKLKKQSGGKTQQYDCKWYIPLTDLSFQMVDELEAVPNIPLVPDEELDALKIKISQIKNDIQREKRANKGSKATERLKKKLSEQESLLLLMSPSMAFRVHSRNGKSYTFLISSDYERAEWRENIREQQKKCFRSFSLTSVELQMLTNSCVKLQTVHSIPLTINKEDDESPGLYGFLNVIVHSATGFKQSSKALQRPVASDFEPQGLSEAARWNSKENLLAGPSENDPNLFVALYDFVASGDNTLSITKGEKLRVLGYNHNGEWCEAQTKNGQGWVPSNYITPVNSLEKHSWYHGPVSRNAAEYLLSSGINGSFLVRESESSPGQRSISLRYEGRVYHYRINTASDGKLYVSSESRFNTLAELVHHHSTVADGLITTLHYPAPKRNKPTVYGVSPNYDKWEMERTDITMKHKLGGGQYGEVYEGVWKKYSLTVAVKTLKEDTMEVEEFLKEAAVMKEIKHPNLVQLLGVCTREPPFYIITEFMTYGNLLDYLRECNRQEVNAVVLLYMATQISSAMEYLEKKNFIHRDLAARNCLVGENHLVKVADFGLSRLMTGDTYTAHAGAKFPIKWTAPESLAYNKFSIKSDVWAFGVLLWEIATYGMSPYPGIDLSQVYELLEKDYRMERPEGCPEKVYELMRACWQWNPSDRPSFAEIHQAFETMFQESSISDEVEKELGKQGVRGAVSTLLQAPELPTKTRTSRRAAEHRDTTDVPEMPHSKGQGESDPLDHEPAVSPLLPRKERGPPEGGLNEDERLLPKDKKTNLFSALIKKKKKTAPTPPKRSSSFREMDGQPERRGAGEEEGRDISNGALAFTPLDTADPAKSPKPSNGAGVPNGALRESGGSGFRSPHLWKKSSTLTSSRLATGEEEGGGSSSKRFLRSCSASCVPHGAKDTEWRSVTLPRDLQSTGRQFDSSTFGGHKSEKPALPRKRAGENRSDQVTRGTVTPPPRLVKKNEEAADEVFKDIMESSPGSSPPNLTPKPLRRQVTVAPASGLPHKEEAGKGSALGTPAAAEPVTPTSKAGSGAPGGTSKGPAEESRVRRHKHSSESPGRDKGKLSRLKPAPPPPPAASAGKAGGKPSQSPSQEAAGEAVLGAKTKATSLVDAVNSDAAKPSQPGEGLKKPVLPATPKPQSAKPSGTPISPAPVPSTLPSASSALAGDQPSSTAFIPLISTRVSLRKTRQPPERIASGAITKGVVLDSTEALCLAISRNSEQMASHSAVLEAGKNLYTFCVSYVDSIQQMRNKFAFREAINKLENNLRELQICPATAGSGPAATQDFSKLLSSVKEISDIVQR
Method: as §3, §2, §6
We used three murine hematopoetic 32D cell lines expressing either p210Bcr-Abl (e14a2), p210Bcr-Abl (e13a2) or p190Bcr-Abl (e1a2) to study the effectiveness of siRNAs to silence each of these human Bcr-Abl fusion breakpoint variants. In addition, experiments were performed in human Ph+leukemia cells (K562, MEG-01). All siRNAs used were directed to breakpoints of the Bcr and Abl sequence of the respective Bcr-Abl mRNA. RNAi-efficiency was assayed via analysis of Bcr-Abl protein levels and by monitoring the biological effect using MTT viability assay.

[10] = tested on: 32Dp210/e14a2 cells; assay: MTT viability assay in 32Dp210/e14a2 cells after siRNA electroporation; format: cell-based, murine; details: treated four times, MTT
Method: as §5, §2, §6

[11] = tested on: 32Dp210/e14a2 cells; assay: Total cell number 48 h after last siRNA treatment, 32Dp210/e14a2 cells; format: cell-based, murine; details: start 2.5 Mio cells
Method: as §2
In order to determine optimal conditions for RNA interference, we repeated the siRNA treatment one to four times at intervals of 24 hours. […] Despite its short duration, the effect was still sufficient to reduce the viability of cells to approximately 59% relative to control cells (EPC, 100%). […] The residual viability level of the cells treated four times with BAF7 measured in MTT assay was not more than ˜2.5% of the level of the control cells. Identical results were obtained when cell counts 48 hours following last treatment were used for assessment of the biological effect. Both mock-treated and cells treated with a mismatch siRNA still increased their cell number from 2.5 Mio cells to more than 25 Mio cells within 48 hours. […] The lower efficiency of BAF1 became even more obvious when the biological effect of BAF1 was assessed.

[12] = tested on: MEG-01 cells; assay: MTT viability assay in MEG-01 cells; format: cell-based, human; details: treated three times
Method: as §5, §2
(§7) All three major Bcr-Abl oncogene variants -e14a2, -e13a2 and -e1a2 can be targeted by RNA interference. To identify effective siRNAs for inhibition of the second major Bcr-Abl fusion gene relevant in CML, Bcr-Abl-e13a2, we treated 32Dp210Bcr-Abl (e13a2) cells with four siRNAs (BAF3, BAF15, BAF17, BAF19) targeting different sequences of the Bcr-Able13a2 mRNA breakpoint. As a control we used a siRNA directed to the Bcr-Abl-e14a2 fusion sequence (BAF9). […] Despite the considerable overlap in their target sequence, BAF17 and BAF3 had no effect Bcr-Abl protein levels. […]

[13] = tested on: Bcr-Abl-e13a2; assay: Western blot of Bcr-Abl protein in MEG-01 cells; format: cell-based, human; details: treated three times, compared to mismatch control BAF28
Method: as §3, §2, §7

BAF22: siRNA duplex, SEQ ID No. 19/28, specific for Bcr-Abl-e1a2 (chain 1 GGAGACGCAGAAGCCCUUCAG; chain 2 CUGAAGGGCUUCUGCGUCUCCAU; listed as RNA, chemistry not given here)
viability ([1]; 32Dp190/e1a2 cells, repeated treatment, ~40 h after second treatment): reduction of viability | viability compared to EPC (100%) ([1]; 32Dp190Bcr-Abl (e1a2) cells, after 2nd treatment): 15% | Bcr-Abl protein levels / Bcr-Abl-e1a2 gene expression [2]: actively silenced Bcr-Abl-e1a2 gene expression; also recorded: significant down-regulation | p190Bcr-Abl protein levels / Bcr-Abl-e1a2 expression [3]: effectively silenced Bcr-Abl-e1a2 expression; also recorded: significantly reduced

BAF3: siRNA duplex, SEQ ID No. 9/10, specific for Bcr-Abl-e13a2 (chain 1 UAAGGAAGAAGCCCUUCAGCG; chain 2 CGCUGAAGGGCUUCUUCCUUAUU; listed as RNA, chemistry not given here)
viability [4]: did also not interfere with the viability | Bcr-Abl protein levels [5]: completely ineffective; also recorded: no effect

Cc1ccc(NC(=O)c2ccc(CN3CCN(C)CC3)cc2)cc1Nc1nccc(-c2cccnc2)n1 [imatinib mesylate, Imatinib mesylate]
resistance to imatinib mesylate [6]: complete resistance | cells undergoing apoptosis [7]: 8% | loss of sensitivity to imatinib mesylate compared to 32Dp210-wt [8]: ~4.7 fold

BAF1: siRNA duplex, SEQ ID No. 7/8, single mismatch compared to BAF7 (chain 1 CAGAGUUGAAAAGCCCUUCAG; chain 2 CUGAAGGGCUUUUCAACUCUGCU; listed as RNA, chemistry not given here) [reference compound]
down-regulation of Bcr-Abl protein levels compared to BAF7 [9]: less efficient down-regulation | viability relative to EPC [10]: 52%

BAF8: siRNA duplex, SEQ ID No. 3/4, Bcr-Abl-e14a2, mismatch control to BAF7 (three mismatches) (chain 1 CAGUGUUCAUAAGCCGUUCAG; chain 2 CUGAACGGCUUAUGAACACUGCU; chemistry not given here)
total cell number 48 h following last treatment [11]: more than 25 Mio cells

BAF15: siRNA duplex, SEQ ID No. 11/25, specific for Bcr-Abl-e13a2 (chain 1 AAUAAGGAAGAAGCCCUUCAG; chain 2 CUGAAGGGCUUCUUCCUUAUUGA; listed as RNA, chemistry not given here)
viability relative to controls (EPC) [4]: ~10% | viability [4]: almost complete loss of viability; also recorded: reduction of viability | Bcr-Abl protein levels [5]: effective down-regulation

BAF24: siRNA duplex, SEQ ID No. 21/22, specific for Bcr-Abl-e1a2 (chain 1 GACGCAGAAGCCCUUCAGCGG; chain 2 CCGCUGAAGGGCUUCUGCGUCUC; listed as RNA, chemistry not given here)
Bcr-Abl protein levels / Bcr-Abl-e1a2 gene expression [2]: no effect at all

BAF17: siRNA duplex, SEQ ID No. 13/26, specific for Bcr-Abl-e13a2 (chain 1 GGAAGAAGCCCUUCAGCGGCC; chain 2 GGCCGCUGAAGGGCUUCUUCCUU; listed as RNA, chemistry not given here)
viability [4]: did also not interfere with the viability | Bcr-Abl protein levels [5]: no effect

BAF19: siRNA duplex, SEQ ID No. 15/27, specific for Bcr-Abl-e13a2 (chain 1 AUCAAUAAGGAAGAAGCCCUU; chain 2 AAGGGCUUCUUCCUUAUUGAUGG; listed as RNA, chemistry not given here)
viability relative to controls (EPC) [4]: ~14% | viability [4]: almost complete loss of viability; also recorded: reduction of viability | viability compared to control cells (EPC, 100%) [12]: ~28% | Bcr-Abl protein levels [5]: effective down-regulation | Bcr-Abl protein levels / Bcr-Abl-e13a2 expression [13]: effectively silenced Bcr-Abl-e13a2 expression; also recorded: significant loss of Bcr-Abl protein levels
